Data on 1 compound can be found in patent US12122750B2, “AT2R antagonists and uses thereof” (Eli Lilly and Company, priority 2022, dated 2024).

By Ki is commonly meant the dissociation constant of the complex between target and ligand, obtained from inhibition or displacement. As a reminder, the IC50 is the concentration at which inhibition is half-maximal. A higher IC50 goes with a need for much substance. Usually IC80 stands for the concentration at which the effect reaches the 80% level.

Structures are written as SMILES.

In assay [1] the target is recombinant human angiotensin-II receptor subtype 2 (hAT2R) (Homo sapiens (Human), UniProt P50052). As to the kind of experiment: Competitive radioligand binding assay (SPA), hAT2R HEK293 membranes. Particulars: [125I]-Tyr4-Angiotensin-II, read-out: AT2R Ki. The procedure, abridged: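 SPA competition binding on membranes from HEK293 cells stably transfected with hAT2R (0.25 μg/well, with 0.1 mg/well PVT-WGA beads) in 50 mM Tris-HCl pH 7.5, 150 mM NaCl, 0.1% fatty-acid-free BSA. Ten-point four-fold dilution curves ran from 50 μM top final concentration. Bound radioactivity was counted (CPM) after 10 h at room temperature.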
Sequence of recombinant human angiotensin-II receptor subtype 2 (hAT2R) (P50052 whole entry): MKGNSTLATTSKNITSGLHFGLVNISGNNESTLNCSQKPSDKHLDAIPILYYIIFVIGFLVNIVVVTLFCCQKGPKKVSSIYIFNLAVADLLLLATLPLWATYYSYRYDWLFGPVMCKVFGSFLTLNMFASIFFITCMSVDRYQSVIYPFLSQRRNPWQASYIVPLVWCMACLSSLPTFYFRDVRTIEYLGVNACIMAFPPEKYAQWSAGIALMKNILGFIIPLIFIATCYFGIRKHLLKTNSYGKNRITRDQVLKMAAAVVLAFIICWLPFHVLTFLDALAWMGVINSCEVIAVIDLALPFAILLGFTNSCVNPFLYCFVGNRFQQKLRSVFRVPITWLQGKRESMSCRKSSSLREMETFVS

The next assay addresses rAT2R (Rattus norvegicus (Rat), UniProt P35351). As to the kind of experiment: Rat binding affinity, competitive radioligand binding assay (SPA), rAT2R HEK293 membranes. Particulars: rat AT2R. The method, then:
Membrane Preparation Protocol (hAT2R HEK293 and rAT2R HEK293)
(§1) Receptor Binding Protocol
(§2) The assays were performed with a scintillation proximity assay (SPA) method using polyvinyltoluene (PVT) wheat germ agglutinin-coupled SPA beads (Perkin Elmer Cat. #RPNQ0001). Assay buffer containing BSA (50 mM Tris-HCl, pH 7.5, 150 mM NaCl, 0.1% w/v fatty-acid free BSA) was used for preparing radioligand, membrane and SPA bead reagent dilution to working stock concentrations. Reference control and test compounds were diluted to obtain ten-point concentration response curves using a four-fold serial dilution protocol onto assay plates, dispensed acoustically from DMSO stock using automated ECHO instrument technology (Labcyte, Inc.). Concentration response curves were routinely generated with the highest final assay concentration for the reference angiotensin-II control at 50 nM, and the highest final assay concentration for the test compounds at 50 μM. […] The hAT2R membrane was combined with PVT-WGA SPA beads to obtain a final assay concentration of 0.25 μg/well hAT2R membrane+0.1 mg/well PVT-WGA SPA bead. And the hAT1R membrane PVT-WGA SPA bead final concentrations was 0.5 μg/well hAT1R membrane+0.1 mg/well PVT-WGA SPA bead. […] For all assays, radioligand addition was followed by the addition of membrane-SPA bead mixture, i.e., the hAT2R membrane-SPA bead mixture (30 μL), the rAT2R membrane-SPA bead mixture, or the AT1R membrane-SPA bead mixture (30 μL) into the assay plate. All dispensing steps were added using a Multiflo FX (Biotek, Inc.) bulk dispensing instrument. After reagent addition steps, assay plates were sealed, and plate contents mixed for one minute on a benchtop micro-plate shaker. Following a 10-hour incubation at room temperature to allow for bead settling and radioligand binding, bound radioactivity was quantitated using a Microbeta Trilux scintillation counter (Perkin Elmer) and expressed as counts per minute (CPM). The unlabeled angiotensin-II control was included on each plate as an experimental assay reference.
(§3) Compounds were tested in a 10-point concentration response curve (CRC) format, with each plate containing the positive control angiotensin-II positive reference compound, and experimental compounds. Maximum binding response (Max) was determined in 32 control wells per plate using assay buffer treatment only, and the minimum binding controls or nonspecific binding response (Min) was also determined in 32 wells per plate by the treatment with 50 nM angiotensin-II. All test sample concentration responses were normalized to the control response and calculated as a percent of the maximal response after correcting for nonspecific binding as shown below: % Specific inhibition=100%−[(CPM−Min)/(Max−Min)×100%]
(§4) Percent specific binding (y-axis) was plotted versus the log concentration of compound (x-axis).

For assay [2], the target named is recombinant human angiotensin-II receptor subtype I (hAT1R) (Homo sapiens (Human), UniProt P30556). Description: Competitive radioligand binding assay (SPA), hAT1R/CHO membranes. As to conditions: [125I]-Tyr4-Angiotensin-II, read-out: AT1R Ki. The method, then:
Membranes hATIR/CHO were Purchased from PerkinElmer, Inc.
Cellular membranes prepared from Chinese hamster ovary (CHO) cells which expressed recombinant human angiotensin-II receptor subtype I (hAT1R), were purchased from PerkinElmer (Catalog Number ES-072-M400UA).
as §1, §2, §3, §4
Binding affinities for compounds of the present disclosure were determined according to the assay described herein.
Binding affinities for compounds of the present disclosure were determined according to the assay described above.

The target in another assay is AT2R (Rattus norvegicus (Rat), UniProt P35351). Description: AT2R ex vivo autoradiography receptor occupancy in rat adrenal sections after oral dosing. Also on record: species or system Sprague Dawley rats. How it is done: The ability for a compound to engage its target may be measured by determining compound's receptor occupancy. An ex vivo autoradiography assay was conducted as described herein.
Sequence of AT2R (P35351 whole entry): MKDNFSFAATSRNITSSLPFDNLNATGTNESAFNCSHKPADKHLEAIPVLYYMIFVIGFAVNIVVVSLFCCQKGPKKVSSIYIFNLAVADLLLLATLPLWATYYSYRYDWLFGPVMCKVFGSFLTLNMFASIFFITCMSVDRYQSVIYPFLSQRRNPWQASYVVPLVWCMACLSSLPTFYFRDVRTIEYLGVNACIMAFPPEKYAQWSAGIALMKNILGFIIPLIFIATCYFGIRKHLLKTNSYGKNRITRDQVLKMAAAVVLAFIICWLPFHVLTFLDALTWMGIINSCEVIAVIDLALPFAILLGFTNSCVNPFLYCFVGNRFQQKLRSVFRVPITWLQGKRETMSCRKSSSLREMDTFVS
Twenty male Sprague Dawley rats (140-150 gms, Envigo) were maintained under controlled laboratory conditions on a 12 hr light cycle with ad lib access to food and water. […] Following a pre-determined survival time, plasma and adrenals were collected and frozen at −80° C. until analyzed. Frozen 20 μm sections of an adrenal from each animal were collected onto gelatin-coated slides and stored at −80° C. […] The specific ligand binding for each animal is calculated by subtracting the non-specific binding from the total bound.

[3] abbreviates: plasma concentration plotted vs % receptor occupancy, rat.

Sequence of rAT2R (P35351 whole entry): as above
Sequence of recombinant human angiotensin-II receptor subtype I (hAT1R) (P30556 whole entry): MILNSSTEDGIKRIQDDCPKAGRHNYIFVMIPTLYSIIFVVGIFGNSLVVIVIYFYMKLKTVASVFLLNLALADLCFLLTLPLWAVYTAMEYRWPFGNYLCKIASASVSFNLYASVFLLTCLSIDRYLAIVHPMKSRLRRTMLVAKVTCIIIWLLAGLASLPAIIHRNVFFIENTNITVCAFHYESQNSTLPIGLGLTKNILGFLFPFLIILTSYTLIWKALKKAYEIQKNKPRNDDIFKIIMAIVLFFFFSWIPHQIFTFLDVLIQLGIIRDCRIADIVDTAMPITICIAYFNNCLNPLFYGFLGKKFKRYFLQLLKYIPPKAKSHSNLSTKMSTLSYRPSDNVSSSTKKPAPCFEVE

`O=C(CC1(C(=O)O)CCN(c2ccccn2)CC1)N(c1ccccc1)C1CCCC(F)(F)C1` (single isomer, unassigned) [Example 74B, 4-(2-((3,3-difluorocyclohexyl)(phenyl)amino)-2-oxoethyl)-1-(pyridin-2-yl)piperidine-4-carboxylic acid]: in assay [1], the Ki worked out at 1.28 nM. The Ki on rAT2R was 0.67 nM. Further, the Ki in assay [2] was more than 49900 nM. On AT2R (setting [3]), this compound registered an IC50 of 1.58 nM and an IC80 of 3.82 nM. Moreover, at AT2R (rat receptor occupancy), the “ex vivo IC50 (TER)” value is on record as 2.358 TER and the “ex vivo IC80 (TER)” value came to 5.701 TER.
